Columns and labels:
Type in all cases: physicochemical
[1] = Solubility of component (A) in monomers and solvents, visual observation; design: key to Solubility Butyl acrylate / Solubility Toluene: ⊚: dissolved transparently; ∘: dissolved almost transparently, but turbidity was observed; △: not dissolved; conditions: for Solubility Butyl acrylate: 0.1 g in butyl acrylate (1.0 g); for Solubility Butyl acrylate / Solubility Toluene: visual; for Solubility Toluene: 0.1 g in toluene (1.0 g); for solubility in butyl acrylate and toluene, result in words: 0.1 g in butyl acrylate (1.0 g) or toluene (1.0 g)
Experimental: The components (A), A-1 to A-4 and A-9 to A-12, (0.1 g) was added to butyl acrylate (1.0 g) or toluene (1.0 g), and the resulting mixture was stirred. The appearance of the mixture was visually observed, and the solubility was evaluated as follows (Table 5).
• ⊚: dissolved transparently • ∘: dissolved almost transparently, but turbidity was observed • △: not dissolved

[2] = UV absorption characteristics of component (A), UV-visible spectrophotometer; conditions: 100 µM chloroform solution, 10-mm quartz cell; for Maximum absorption wavelength Molar absorption coefficient: at the maximum absorption wavelength
Experimental: A 100 µM chloroform solution of each benzophenone derivative was prepared and placed in a 10-mm quartz cell. The absorption spectrum was measured using a UV-visible spectrophotometer (V-550, manufactured by JASCO Corporation).

[3] = Heat resistance of component (A): 5% weight loss temperature by TG/DTA; conditions: heating rate 10°C/min, 25°C to 550°C
Experimental: The 5% weight loss temperature of each benzophenone derivative was measured as follows. Using a simultaneous differential thermal and thermogravimetric analyzer (TG/DTA6200, manufactured by SII), heating was performed at a heating rate of 10°C/min in a measurement range of 25°C to 550°C, and the temperature at which the weight change (TG) decreased by 5% by weight was read.

Row | Compound | Solubility Butyl acrylate [1] | Solubility Toluene [1] | Maximum absorption wavelength Wavelength [2] [nm] | Molar absorption coefficient at 365 nm [2] [L/mol/cm] | Maximum absorption wavelength Molar absorption coefficient [2] [L/mol/cm] | solubility in butyl acrylate and toluene, result in words [1] | 5% weight loss temperature [3] [°C]
1 | CC(C)(C)c1ccc(Sc2ccc(C(=O)c3ccc(Sc4ccc(C(C)(C)C)cc4)cc3)cc2)cc1 [A-4, 4,4'-Bis(p-tert-butylphenylthio)benzophenone] | ○ | ⊚ | 328 | – | 31120 | good solubility | –
2 | Cc1cc(C(C)(C)C)ccc1Sc1ccc(C(=O)c2ccc(Sc3ccc(C(C)(C)C)cc3C)cc2)cc1 [A-9, 4,4'-Dithio(4-tert-butyl-2-methylphenyl)benzophenone] | ⊚ | ⊚ | 329 | 3870 | 32600 | – | –
3 | 4,4'-Ditolylthiobenzophenone [A-2] | Δ | ○ | 327 | – | 31500 | – | –
4 | CC(C)c1ccc(Sc2ccc(C(=O)c3ccc(Sc4ccc(C(C)C)cc4)cc3)cc2)cc1 [A-3, 4,4'-Bis(p-isopropylphenylthio)benzophenone] | ⊚ | ⊚ | 327 | – | 31440 | good solubility | –
5 | CSc1ccc(C(=O)c2ccc(SC)cc2)cc1 [A-6, 4,4'-Bis(methylthio)benzophenone, reference compound] | – | – | 323 | 1100 | 25100 | – | 239
6 | S=C(c1ccc(-c2ccccc2)cc1)c1ccc(-c2ccccc2)cc1 [A-1, 4,4'-Diphenylthiobenzophenone] | Δ | Δ | 326 | 3900 | 32880 | – | 314
7 | Cc1ccc(Sc2ccc(C(=O)c3ccccc3)cc2)cc1 [A-5, 4-(p-Tolylthio)benzophenone, reference compound] | – | – | 316 | 700 | 13200 | – | 235

Results, then the compound that gave them:

Row | Solubility Butyl acrylate [1] | Solubility Toluene [1] | Maximum absorption wavelength Wavelength [2] [nm] | Molar absorption coefficient at 365 nm [2] [L/mol/cm] | Maximum absorption wavelength Molar absorption coefficient [2] [L/mol/cm] | solubility in butyl acrylate and toluene, result in words [1] | 5% weight loss temperature [3] [°C] | Compound
8 | ○ | ○ | 329 | 3830 | 31640 | – | – | Cc1ccc(Sc2ccc(C(=O)c3ccc(Sc4ccc(C)cc4C)cc3)cc2)c(C)c1 [A-11, 4,4'-Dithio(2,4-dimethylphenyl)benzophenone]
9 | ○ | ⊚ | 328 | 3250 | 31590 | – | – | Cc1ccc(C)c(Sc2ccc(C(=O)c3ccc(Sc4cc(C)ccc4C)cc3)cc2)c1 [A-12, 4,4'-Dithio(2,5-dimethylphenyl)benzophenone]
10 | – | – | 326 | 2000 | 24800 | – | 282 | CCCCCCCCSc1ccc(C(=O)c2ccc(SCCCCCCCC)cc2)cc1 [A-7, 4,4'-Bis(octylthio)benzophenone, reference compound]
11 | ○ | ⊚ | 328 | – | 30730 | – | – | Cc1cccc(Sc2ccc(C(=O)c3ccc(Sc4cccc(C)c4)cc3)cc2)c1 [A-10, 4,4'-Dithio(3-methylphenyl)benzophenone]

From patent EP4748864A1, “POLYMERIZATION INITIATOR OR PHOTOSENSITIZER, POLYMERIZATION INITIATION COMPOSITION, AND METHOD FOR PRODUCING RESIN” (Miyoshi Oil & Fat Co., Ltd., priority 2023, dated 2025)
